Test results published in PubChem BioAssay (NCI).
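Interpolation was linear, between the two tested concentrations surrounding the appropriate level; five concentrations were tested over 48 hours in 96-well plates. The concentration for 50% growth inhibition is given as GI50. TGI marks complete inhibition of growth.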

How the values were obtained:
Test in all cases: NCI-60 cell line screen, 48 h
EKVX NSCLC = system: EKVX NSCLC
SK-MEL-2 melanoma = system: SK-MEL-2 melanoma
CCRF-CEM leukemia = system: CCRF-CEM leukemia
HT29 colon = system: HT29 colon
MALME-3M melanoma = system: MALME-3M melanoma
SF-295 CNS = system: SF-295 CNS
PC-3 prostate = system: PC-3 prostate
HCT-116 colon = system: HCT-116 colon
MDA-MB-231 breast = system: MDA-MB-231 breast
SR leukemia = system: SR leukemia
HOP-62 NSCLC = system: HOP-62 NSCLC
M14 melanoma = system: M14 melanoma
K-562 leukemia = system: K-562 leukemia
NCI-H226 lung = system: NCI-H226 lung
HS 578T breast = system: HS 578T breast
NCI-H460 lung = system: NCI-H460 lung
MOLT-4 leukemia = system: MOLT-4 leukemia
SF-539 CNS = system: SF-539 CNS
LOX IMVI melanoma = system: LOX IMVI melanoma
OVCAR-4 ovarian = system: OVCAR-4 ovarian
U251 CNS = system: U251 CNS
SK-OV-3 ovarian = system: SK-OV-3 ovarian
UACC-62 melanoma = system: UACC-62 melanoma
OVCAR-3 ovarian = system: OVCAR-3 ovarian
SN12C renal = system: SN12C renal
NCI-H23 lung = system: NCI-H23 lung
HL-60(TB) leukemia = system: HL-60(TB) leukemia
HCT-15 colon = system: HCT-15 colon
ACHN renal = system: ACHN renal
786-0 renal = system: 786-0 renal
UO-31 renal = system: UO-31 renal
SK-MEL-5 melanoma = system: SK-MEL-5 melanoma
TK-10 renal = system: TK-10 renal
NCI-H522 lung = system: NCI-H522 lung
SNB-75 CNS = system: SNB-75 CNS
SNB-19 CNS = system: SNB-19 CNS
DU-145 prostate = system: DU-145 prostate
IGROV1 ovarian = system: IGROV1 ovarian
SK-MEL-28 melanoma = system: SK-MEL-28 melanoma
NCI/ADR-RES ovarian = system: NCI/ADR-RES ovarian
A498 renal = system: A498 renal
HCC-2998 colon = system: HCC-2998 colon
KM12 colon = system: KM12 colon
T-47D breast = system: T-47D breast
BT-549 breast = system: BT-549 breast
MCF7 breast = system: MCF7 breast
OVCAR-5 ovarian = system: OVCAR-5 ovarian
OVCAR-8 ovarian = system: OVCAR-8 ovarian
RPMI-8226 leukemia = system: RPMI-8226 leukemia
CAKI-1 renal = system: CAKI-1 renal
COLO 205 colon = system: COLO 205 colon
SW-620 colon = system: SW-620 colon
HOP-92 NSCLC = system: HOP-92 NSCLC
A549 NSCLC = system: A549 NSCLC
SF-268 CNS = system: SF-268 CNS
UACC-257 melanoma = system: UACC-257 melanoma

With `O=C(N/N=C/c1cccs1)c1[nH]c2ccc(Br)cc2c1-c1ccccc1` the GI50 (EKVX NSCLC) was 2.2 µM, the TGI (EKVX NSCLC) was > 100 µM and the GI50 (SK-MEL-2 melanoma) was 0.15 µM. The TGI (SK-MEL-2 melanoma) was > 100 µM, the GI50 (CCRF-CEM leukemia) was 0.0619 µM and the TGI (CCRF-CEM leukemia) was > 100 µM. For the same compound, the GI50 (HT29 colon) was 0.0368 µM, the TGI (HT29 colon) was 1.57 µM and the GI50 (MALME-3M melanoma) was 0.179 µM. For the same compound, the TGI (MALME-3M melanoma) was > 100 µM, the GI50 (SF-295 CNS) was 0.0392 µM and the TGI (SF-295 CNS) was 39.6 µM. The GI50 (PC-3 prostate) was 0.224 µM, the TGI (PC-3 prostate) was > 100 µM and the GI50 (HCT-116 colon) was 0.0345 µM. For the same compound, the TGI (HCT-116 colon) was > 100 µM, the GI50 (MDA-MB-231 breast) was 0.128 µM and the TGI (MDA-MB-231 breast) was 0.687 µM. For the same compound, the GI50 (SR leukemia) was 0.0412 µM, the TGI (SR leukemia) was > 100 µM and the GI50 (HOP-62 NSCLC) was 0.15 µM. The TGI (HOP-62 NSCLC) was > 93.4 µM, the GI50 (M14 melanoma) was 0.0699 µM and the TGI (M14 melanoma) was > 100 µM. For the same compound, the GI50 (K-562 leukemia) was 0.0367 µM, the TGI (K-562 leukemia) was > 100 µM and the GI50 (NCI-H226 lung) was 0.24 µM. The TGI (NCI-H226 lung) was > 100 µM, the GI50 (HS 578T breast) was 0.0657 µM and the TGI (HS 578T breast) was > 100 µM. For the same compound, the GI50 (NCI-H460 lung) was 0.0657 µM, the TGI (NCI-H460 lung) was 3.22 µM and the GI50 (MOLT-4 leukemia) was 0.152 µM. For the same compound, the TGI (MOLT-4 leukemia) was > 100 µM, the GI50 (SF-539 CNS) was 0.0283 µM and the TGI (SF-539 CNS) was 0.115 µM. For the same compound, the GI50 (LOX IMVI melanoma) was 0.0347 µM, the TGI (LOX IMVI melanoma) was 22.8 µM and the GI50 (OVCAR-4 ovarian) was 0.34 µM. For the same compound, the TGI (OVCAR-4 ovarian) was > 100 µM, the GI50 (U251 CNS) was 0.0746 µM and the TGI (U251 CNS) was > 100 µM. For the same compound, the GI50 (SK-OV-3 ovarian) was 0.345 µM, the TGI (SK-OV-3 ovarian) was > 100 µM and the GI50 (UACC-62 melanoma) was 0.0516 µM. For the same compound, the TGI (UACC-62 melanoma) was > 100 µM, the GI50 (OVCAR-3 ovarian) was 0.0637 µM and the TGI (OVCAR-3 ovarian) was > 72.9 µM. For the same compound, the GI50 (SN12C renal) was 0.0728 µM, the TGI (SN12C renal) was > 51.2 µM and the GI50 (NCI-H23 lung) was 0.0883 µM. The TGI (NCI-H23 lung) was > 100 µM, the GI50 (HL-60(TB) leukemia) was 0.0868 µM and the TGI (HL-60(TB) leukemia) was 0.358 µM. The GI50 (HCT-15 colon) was 0.0418 µM, the TGI (HCT-15 colon) was > 57.2 µM and the GI50 (ACHN renal) was 0.103 µM. The TGI (ACHN renal) was > 82.9 µM, the GI50 (786-0 renal) was 0.186 µM and the TGI (786-0 renal) was > 100 µM. The GI50 (UO-31 renal) was 0.12 µM, the TGI (UO-31 renal) was > 100 µM and the GI50 (SK-MEL-5 melanoma) was 0.0638 µM. The TGI (SK-MEL-5 melanoma) was 0.23 µM, the GI50 (TK-10 renal) was 5.74 µM and the TGI (TK-10 renal) was > 100 µM. The GI50 (NCI-H522 lung) was 0.0242 µM, the TGI (NCI-H522 lung) was 0.0809 µM and the GI50 (SNB-75 CNS) was 0.226 µM. The TGI (SNB-75 CNS) was 8.49 µM, the GI50 (SNB-19 CNS) was 0.124 µM and the TGI (SNB-19 CNS) was > 100 µM. The GI50 (DU-145 prostate) was 0.063 µM, the TGI (DU-145 prostate) was > 100 µM and the GI50 (IGROV1 ovarian) was 0.0818 µM. For the same compound, the TGI (IGROV1 ovarian) was > 100 µM, the GI50 (SK-MEL-28 melanoma) was 0.612 µM and the TGI (SK-MEL-28 melanoma) was > 100 µM. For the same compound, the GI50 (NCI/ADR-RES ovarian) was 0.0392 µM, the GI50 (A498 renal) was > 83.8 µM and the TGI (A498 renal) was > 100 µM. The GI50 (HCC-2998 colon) was 0.142 µM, the TGI (HCC-2998 colon) was 43.3 µM and the GI50 (KM12 colon) was 0.152 µM. For the same compound, the TGI (KM12 colon) was > 100 µM, the GI50 (T-47D breast) was 8.84 µM and the TGI (T-47D breast) was > 100 µM. The GI50 (BT-549 breast) was 0.0976 µM, the TGI (BT-549 breast) was 0.474 µM and the GI50 (MCF7 breast) was 0.0374 µM. For the same compound, the TGI (MCF7 breast) was > 35.5 µM, the GI50 (OVCAR-5 ovarian) was 0.109 µM and the TGI (OVCAR-5 ovarian) was > 100 µM. The GI50 (OVCAR-8 ovarian) was 0.0442 µM, the GI50 (RPMI-8226 leukemia) was 0.0542 µM and the TGI (RPMI-8226 leukemia) was > 76.5 µM. For the same compound, the GI50 (CAKI-1 renal) was 0.153 µM, the TGI (CAKI-1 renal) was > 100 µM and the GI50 (COLO 205 colon) was 0.152 µM. The TGI (COLO 205 colon) was 0.32 µM, the GI50 (SW-620 colon) was 0.0405 µM and the TGI (SW-620 colon) was > 100 µM. The GI50 (HOP-92 NSCLC) was 1.12 µM, the TGI (HOP-92 NSCLC) was > 100 µM and the GI50 (A549 NSCLC) was 0.125 µM. The TGI (A549 NSCLC) was > 100 µM, the GI50 (SF-268 CNS) was 0.404 µM and the TGI (SF-268 CNS) was > 100 µM. For the same compound, the GI50 (UACC-257 melanoma) was 0.297 µM and the TGI (UACC-257 melanoma) was > 100 µM.
